The values below come from ChEMBL document CHEMBL1926630, “Structure-activity relationships of chalcone analogs as potential inhibitors of ADP- and collagen-induced platelet aggregation” (2011).

Assay [1] is described as follows: cells. Conditions: Oryctolagus cuniculus, New Zealand white, Platelet, read-out: INH.
Description: Antiplatelet activity against New Zealand white rabbit platelets assessed as inhibition of collagen-induced platelet aggregation at 9.6 ug/mL treated 2 mins before collagen challenge measured after 4 mins by turbidimetric analysis
A short description of assay [2]: cells. Conditions: Oryctolagus cuniculus, New Zealand white, Platelet, read-out: INH. The source holds these as a separate data set.
Description: Antiplatelet activity against New Zealand white rabbit platelets assessed as inhibition of ADP-induced platelet aggregation at 9.6 ug/mL treated 2 mins before ADP challenge measured after 4 mins by turbidimetric analysis

For `COC(=O)[C@H](c1ccccc1Cl)N1CCc2sccc2C1` [CLOPIDOGREL], the inhibition at 9.6 µg/mL was 3.5% in assay [1] and 85.2% in assay [2].
